In paper PMC12892976, “Alkylation-based optimization of antifungal FPPS inhibitors yields a potent, broad-spectrum lipophilic zoledronate derivative” (mBio, 2025):
Values after ≈ are worked out from the molar mass of the structure shown.

Key:
[1] = system: Saccharomyces cerevisiae; assay: MIC/MFC broth microdilution (CLSI); format: cell-based; details: Saccharomyces cerevisiae S288c
Experimental: (§1) Antifungal susceptibility was determined by broth microdilution according to the CLSI guidelines described in M27-Ed4 ([16]). […] MFC was determined by back-plating drug-treated cultures from MIC broths onto SDA plates. The MFC was defined as the lowest concentration from which no colonies could be cultured.

[2] = system: Candida albicans; assay: MIC/MFC broth microdilution (CLSI); format: cell-based; details: Candida albicans SC5314
Experimental: as §1

[3] = system: Candida tropicalis; assay: MIC broth microdilution (CLSI); format: cell-based; details: Candida tropicalis M230640
Experimental: (§2) Antifungal susceptibility was determined by broth microdilution according to the CLSI guidelines described in M27-Ed4 ([16]).

[4] = system: Trichophyton interdigitale; assay: MIC broth microdilution (CLSI); format: cell-based; details: Trichophyton interdigitale R-234
Experimental: as §2

[5] = system: Cryptococcus deuterogattii; assay: checkerboard drug interaction (FICI, MICc); format: cell-based;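 also: simplified diagonal checkerboard screen pairing antifungal drugs with FPPS inhibitors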
Experimental: (§3) Drug interactions between antifungals and FPPS inhibitors were investigated using a simplified checkerboard diagonal screening method ([45]). […] FICIs were determined according to the Loewe additivity model ([17]).

[6] = system: Cryptococcus neoformans; assay: checkerboard drug interaction (FICI, MICc); format: cell-based;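 also: antifungal plus FPPS inhibitor pairs tested against Cryptococcus neoformans by simplified diagonal checkerboard screening, FICI computed under the Loewe additivity model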
Experimental: as §3

[7] = system: Saccharomyces cerevisiae; assay: checkerboard drug interaction (FICI, MICc); format: cell-based;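 also: simplified diagonal checkerboard screen pairing antifungals with FPPS inhibitors, FICI calculated under the Loewe additivity model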
Experimental: as §3

[8] = system: Candida glabrata; assay: checkerboard drug interaction (FICI, MICc); format: cell-based;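 also: simplified diagonal checkerboard screen pairing antifungals with FPPS inhibitors, FICI calculated under the Loewe additivity model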
Experimental: as §3

[9] = system: Candida albicans; assay: checkerboard drug interaction (FICI, MICc); format: cell-based;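 also: antifungal plus FPPS inhibitor combinations on Candida albicans tested by a simplified diagonal checkerboard screen, with FICI calculated under the Loewe additivity model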
Experimental: as §3

[10] = system: Aspergillus flavus; assay: checkerboard drug interaction (FICI, MICc); format: cell-based;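 also: simplified diagonal checkerboard screen pairing azole antifungals with FPPS inhibitors, FICI calculated under the Loewe additivity model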
Experimental: as §3

[11] = system: Aspergillus fumigatus; assay: checkerboard drug interaction (FICI, MICc); format: cell-based;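 also: simplified diagonal checkerboard screen pairing antifungals with FPPS inhibitors against Aspergillus fumigatus, with FICI calculated under the Loewe additivity model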
Experimental: as §3

[12] = system: Aspergillus felis; assay: checkerboard drug interaction (FICI, MICc); format: cell-based;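 also: simplified diagonal checkerboard screen pairing antifungals with FPPS inhibitors, FICI calculated under the Loewe additivity model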
Experimental: as §3

[13] = system: Trichophyton rubrum; assay: checkerboard drug interaction (FICI, MICc); format: cell-based
Experimental: as §3

[14] = system: eight fungal species; assay: MIC/MFC summary across the eight fungal species of Table 1; format: cell-based
Experimental: The antifungal activity of these compounds was evaluated according to CLSI guidelines ([16]).

[15] = system: Cryptococcus deuterogattii; assay: MIC/MFC broth microdilution (CLSI);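 also: broth microdilution per CLSI M27-Ed4. MFC is the lowest concentration yielding no colonies when MIC broths are subcultured onto SDA plates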
Experimental: as §1

[16] = system: Cryptococcus neoformans; assay: MIC/MFC broth microdilution (CLSI);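 also: susceptibility testing followed the CLSI M27-Ed4 broth microdilution document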
Experimental: as §1

[17] = system: Candida glabrata; assay: MIC/MFC broth microdilution (CLSI);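 also: broth microdilution following CLSI M27-Ed4, MFC taken as the lowest drug level yielding no growth once MIC wells were subcultured on SDA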
Experimental: as §1

[18] = system: Aspergillus flavus; assay: MIC/MFC broth microdilution (CLSI); details: ATCC204304
Experimental: as §1

[19] = system: Aspergillus fumigatus; assay: MIC/MFC broth microdilution (CLSI); details: ATCC204305
Experimental: as §1

[20] = system: Trichophyton rubrum; assay: MIC/MFC broth microdilution (CLSI)
Experimental: as §1

## CC(=O)N1CCN(c2ccc(OCC3COC(Cn4ccnc4)(c4ccc(Cl)cc4Cl)O3)cc2)CC1 (stereo not shown) [KET, ketoconazole]
[1]
  MFC: 8 µg/mL (≈ 15.1 µM)
  MIC: 1 µg/mL (≈ 1.88 µM)
  MIC / MEC: 1 µg/mL (≈ 1.88 µM)
[2]
  MFC: 0.25 µg/mL (≈ 0.47 µM)
  MIC: 0.0625 µg/mL (≈ 0.118 µM)
  MIC / MEC: 0.06 µg/mL (≈ 0.113 µM)
[3]
  MIC / MEC: 8 µg/mL (≈ 15.1 µM)
[4]
  MIC / MEC: 8 µg/mL (≈ 15.1 µM)
[5]; in combination with 10-ZOL
  antifungal MICc: 0.063
[5]; in combination with ZOL
  antifungal MICc: 0.5
[6]; in combination with 10-ZOL
  antifungal MICc: 0.063
[6]; in combination with ZOL
  antifungal MICc: 0.125
[7]; in combination with 10-ZOL
  antifungal MICc: 0.25
[7]; in combination with ZOL
  antifungal MICc: 0.25
[8]; in combination with 10-ZOL
  antifungal MICc: 0.016
[8]; in combination with ZOL
  antifungal MICc: 0.031
[9]; in combination with 10-ZOL
  antifungal MICc: 0.125
[9]; in combination with ZOL
  antifungal MICc: 0.25
[10]; in combination with 10-ZOL
  antifungal MICc: 1
[10]; in combination with ZOL
  antifungal MICc: 2
[11]; in combination with 10-ZOL
  antifungal MICc: 0.25
[11]; in combination with ZOL
  antifungal MICc: 2
[12]; in combination with 10-ZOL
  antifungal MICc: 4
[12]; in combination with ZOL
  antifungal MICc: 8
[13]; in combination with 10-ZOL
  antifungal MICc: 1
[13]; in combination with ZOL
  antifungal MICc: 1
[14]; across eight species, read-out: Geometric mean MFC
  MFC: 6.7 µg/mL (≈ 12.6 µM)
[14]; read-out: Geometric mean MIC
  MIC: 1.3 µg/mL (≈ 2.45 µM)
[15]; Cryptococcus deuterogattii
  MFC: 8 µg/mL (≈ 15.1 µM)
  MIC: 4 µg/mL (≈ 7.53 µM)
[15]; Cryptococcus deuterogattii R265
  MIC / MEC: 4 µg/mL (≈ 7.53 µM)
[16]; Cryptococcus neoformans
  MFC: 4 µg/mL (≈ 7.53 µM)
  MIC: 0.25 µg/mL (≈ 0.47 µM)
[16]; Cryptococcus neoformans H99
  MIC / MEC: 0.25 µg/mL (≈ 0.47 µM)
[17]; Candida glabrata CBS138 (ATCC 2001)
  MIC / MEC: 0.5 µg/mL (≈ 0.941 µM)
[17]; Nakaseomyces glabratus, CBS138
  MFC: 4 µg/mL (≈ 7.53 µM)
  MIC: 0.5 µg/mL (≈ 0.941 µM)
[18]
  MFC: 8 µg/mL (≈ 15.1 µM)
  MIC: 2 µg/mL (≈ 3.76 µM)
  MIC / MEC: 2 µg/mL (≈ 3.76 µM)
[19]
  MFC: 16 µg/mL (≈ 30.1 µM)
  MIC: 4 µg/mL (≈ 7.53 µM)
  MIC / MEC: 4 µg/mL (≈ 7.53 µM)
[20]; Trichophyton rubrum
  MFC: > 16 µg/mL
  MIC: 4 µg/mL (≈ 7.53 µM)
[20]; Trichophyton rubrum R-218
  MIC / MEC: 4 µg/mL (≈ 7.53 µM)
